pIC50: −log10 of the molar value. Where two headings read alike, the source gives them in different places.
Target: T1, human recombinant COX2 (hCOX2) (UniProt P35354)
T1 sequence (P35354 1-604): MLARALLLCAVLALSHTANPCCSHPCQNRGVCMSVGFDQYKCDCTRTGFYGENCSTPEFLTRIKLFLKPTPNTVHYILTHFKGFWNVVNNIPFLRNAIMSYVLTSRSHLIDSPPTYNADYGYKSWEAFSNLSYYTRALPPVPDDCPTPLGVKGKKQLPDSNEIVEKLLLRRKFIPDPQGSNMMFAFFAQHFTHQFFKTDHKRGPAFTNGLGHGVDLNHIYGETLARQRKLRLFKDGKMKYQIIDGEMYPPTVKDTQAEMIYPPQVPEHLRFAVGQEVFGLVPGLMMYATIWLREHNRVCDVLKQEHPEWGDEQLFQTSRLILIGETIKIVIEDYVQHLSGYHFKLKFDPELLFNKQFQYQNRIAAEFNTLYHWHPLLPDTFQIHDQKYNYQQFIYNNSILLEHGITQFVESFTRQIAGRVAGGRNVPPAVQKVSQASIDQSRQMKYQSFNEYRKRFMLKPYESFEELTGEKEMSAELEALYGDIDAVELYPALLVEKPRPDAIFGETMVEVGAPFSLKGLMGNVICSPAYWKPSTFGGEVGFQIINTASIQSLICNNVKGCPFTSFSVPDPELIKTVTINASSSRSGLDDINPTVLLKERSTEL
Experiment: LCMS-based COX2 enzymatic inhibition assay (PGE2 quantification)
Assay type: biochemical
Set-up: COX2 2 minutes pge2/pge2d4 area ratio Avg; other: 2 minutes; readout pge2/pge2d4 area ratio; average; COX2 2 minutes pge2/pge2d4 area ratio Avg; LLE; average LLE; COX2 2 minutes pge2 area (counts) Avg; readout pge2 area (counts); other: 2 min; "ovine COX2 (oCOX2), human recombinant COX2 (hCOX2)"
Conditions: for pIC50: average
Summary of the method: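 PGE2 formed from arachidonic acid (final 5 μM, 2 min) was measured by LC-MS-MS against DMSO controls. Enzyme (oCOX-1 0.1 μg or hCOX2 0.2 μg) with hematin/epinephrine cofactors at pH 8.0 was given 10 min at 37 °C with compound first. Twelve-point curves run three times gave IC50.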

[1] = 2 minutes, readout pge2/pge2d4 area ratio, average LLE
[2] = 2 minutes, readout pge2/pge2d4 area ratio, read-out: COX2 2 minutes pge2/pge2d4 area ratio Avg. IC50
[3] = 2 minutes, readout pge2 area (counts), average LLE
[4] = 2 minutes, readout pge2 area (counts), read-out: COX2 2 minutes pge2 area (counts) Avg. IC50
[5] = 10 minutes, readout pge2 area (counts), average LLE
[6] = 10 minutes, readout pge2 area (counts), read-out: COX2 10 minutes pge2 area (counts) Avg. IC50
[7] = read-out: COX2 2 minutes pge2/pge2d4 area ratio Avg. IC50 (microM), 2 minutes, readout pge2/pge2d4 area ratio

With `Cc1ncc(-c2ccc(S(C)(=O)=O)cc2)nc1NCc1cccs1` [Compound 145] the “COX2 2 minutes pge2/pge2d4 area ratio Avg. LLE” value [1] was 4.321, the pIC50 [2] was 6.63 and the “COX2 2 minutes pge2 area (counts) Avg. LLE” value (from here on “COX2 2 minutes pge2 area”) [3] was 4.37. For the same molecule, the pIC50 [4] was 6.66, the “COX2 10 minutes pge2 area (counts) Avg. LLE” value (“COX2 10 minutes pge2 area” for short) [5] was 5.186 and the pIC50 [6] was 7.41.
For `CS(=O)(=O)c1ccc(-n2ccc3ccc(/C(=N\O)c4cccs4)nc32)cc1` [Compound 187], the pIC50 [2] was 6.20 and the pIC50 [4] was 6.20.
Molecule `CS(=O)(=O)c1ccc(-c2cnc(C#N)c(NCc3cccs3)n2)cc1` [Compound 169] has a pIC50 [2] of 6.35, a pIC50 [4] of 6.53 and a pIC50 [6] of 7.23.
With `COc1ncc(NCc2nccs2)nc1-c1ccc(S(C)(=O)=O)cc1` [Compound 107] the “COX2 2 minutes pge2/pge2d4 area ratio Avg. LLE” value [1] was 4.932, the pIC50 [2] was 7.03 and the “COX2 2 minutes pge2 area” value [3] was 4.948. For the same molecule, the pIC50 [4] was 7.05.
In the case of `COCCOc1ncc(NCc2cccs2)nc1-c1ccc(S(C)(=O)=O)cc1` [Compound 133], the “COX2 2 minutes pge2/pge2d4 area ratio Avg. LLE” value [1] was 4.558, the pIC50 [2] was 6.78 and the “COX2 2 minutes pge2 area” value [3] was 4.582. For the same molecule, the pIC50 [4] was 6.90.
Molecule `CS(=O)(=O)c1ccc(-c2cc(OCc3cccs3)ncn2)cc1` [Compound 318] has a pIC50 [7] of 5.28.
`CS(=O)(=O)c1ccc(-c2cc(NCc3ccco3)ncn2)cc1` [Compound 277] gave a pIC50 [2] of 5.28.
`CS(=O)(=O)c1ccc(-c2cncc(NCc3ncco3)n2)cc1` [Compound 246] was tested, and the “COX2 2 minutes pge2/pge2d4 area ratio Avg. LLE” value [1] was 4.306, the pIC50 [2] was 5.49 and the “COX2 2 minutes pge2 area” value [3] was 4.2875. For the same molecule, the pIC50 [4] was 5.47.
For `COc1ncc(NCc2cnco2)nc1-c1ccc(S(C)(=O)=O)cc1` [Compound 227], the “COX2 2 minutes pge2/pge2d4 area ratio Avg. LLE” value [1] was 4.384, the pIC50 [2] was 5.69 and the “COX2 2 minutes pge2 area” value [3] was 4.493. It also gave a pIC50 [4] of 5.80.
For `CS(=O)(=O)c1ccc(-c2cncc(NCc3ncc[nH]3)n2)cc1` [Compound 279], the “COX2 2 minutes pge2/pge2d4 area ratio Avg. LLE” value [1] was 4.334, the “COX2 2 minutes pge2 area” value [3] was 4.334 and the pIC50 [7] was 5.28.
With `COc1ncc(NCc2cccnc2)nc1-c1ccc(S(C)(=O)=O)cc1` [Compound 166] the “COX2 2 minutes pge2/pge2d4 area ratio Avg. LLE” value [1] was 5.259, the pIC50 [2] was 6.37 and the “COX2 2 minutes pge2 area” value [3] was 5.249. The pIC50 [4] was 6.42.
For `CS(=O)(=O)c1ccc(-c2ccnc(NCc3ccco3)c2)cc1` [Compound 283], the pIC50 [7] was 5.28.
For `CS(=O)(=O)c1ccc(-c2cccc(NCc3ccno3)n2)cc1` [Compound 175], the “COX2 2 minutes pge2/pge2d4 area ratio Avg. LLE” value [1] was 4.7843, the pIC50 [2] was 6.29 and the “COX2 2 minutes pge2 area” value [3] was 4.685. The pIC50 [4] was 6.20.
For `CS(=O)(=O)c1ccc(-c2cc(C(F)(F)F)nc(Oc3ccc(F)cc3)n2)cc1` [Compound 130], the “COX2 2 minutes pge2/pge2d4 area ratio Avg. LLE” value [1] was 2.661, the pIC50 [2] was 6.82 and the “COX2 2 minutes pge2 area” value [3] was 2.626. For the same molecule, the pIC50 [4] was 6.68, the “COX2 10 minutes pge2 area” value [5] was 4.116 and the pIC50 [6] was 8.03. For the same molecule, the “COX2 30 minutes pge2 area (counts) Avg. LLE” value (30 minutes, readout pge2 area (counts), average LLE) was 5.42 and the pIC50 (30 minutes, readout pge2 area (counts), read-out: COX2 30 minutes pge2 area (counts) Avg. IC50) was 9.62.
For `CN1CCN(c2cncc(-c3ccc(S(C)(=O)=O)cc3)n2)CC1` [Compound 287], the “COX2 2 minutes pge2/pge2d4 area ratio Avg. LLE” value [1] was 5.044, the “COX2 2 minutes pge2 area” value [3] was 5.044 and the “COX2 10 minutes pge2 area” value [5] was 5.574. It also gave a pIC50 [6] of 5.81 and a pIC50 [7] of 5.28.
`Cc1coc(C(=O)Nc2cccc(-c3ccc(S(C)(=O)=O)cc3)n2)c1` [Compound 276] was tested, and the “COX2 2 minutes pge2/pge2d4 area ratio Avg. LLE” value [1] was 2.554, the “COX2 2 minutes pge2 area” value [3] was 2.659 and the pIC50 [4] was 5.39. For the same molecule, the pIC50 [7] was 5.28.
In the case of `CC(C)Oc1ncc(NCc2cccs2)nc1-c1ccc(S(C)(=O)=O)cc1` [Compound 75], the “COX2 2 minutes pge2/pge2d4 area ratio Avg. LLE” value [1] was 3.984, the pIC50 [2] was 7.34 and the “COX2 2 minutes pge2 area” value [3] was 3.887. The pIC50 [4] was 7.21.
`CS(=O)(=O)c1ccc(-c2cncc(SC[C@H]3CCCO3)n2)cc1` (single isomer, unassigned) [Compound 154] was tested, and the “COX2 2 minutes pge2/pge2d4 area ratio Avg. LLE” value [1] was 4.687, the pIC50 [2] was 6.50 and the “COX2 2 minutes pge2 area” value [3] was 4.726. It also gave a pIC50 [4] of 6.53.
For `CS(=O)(=O)c1ccc(-c2cncc(NCc3ccns3)n2)cc1` [Compound 142], the “COX2 2 minutes pge2/pge2d4 area ratio Avg. LLE” value [1] was 5.555, the pIC50 [2] was 6.65 and the “COX2 2 minutes pge2 area” value [3] was 5.576. It also gave a pIC50 [4] of 6.68.
With `CS(=O)(=O)c1ccc(-c2cncc(OCc3ccsc3)n2)cc1` [Compound 134] the “COX2 2 minutes pge2/pge2d4 area ratio Avg. LLE” value [1] was 4.3725, the pIC50 [2] was 6.74 and the “COX2 2 minutes pge2 area” value [3] was 4.235. The pIC50 [4] was 6.62.
`CS(=O)(=O)c1ccc(-c2cc(NCc3cccs3)cnn2)cc1` [Compound 220] was tested, and the “COX2 2 minutes pge2/pge2d4 area ratio Avg. LLE” value [1] was 3.784, the pIC50 [2] was 5.78 and the “COX2 2 minutes pge2 area” value [3] was 3.69. It also gave a pIC50 [4] of 5.68.
For `CN(C)c1cncc(-c2ccc(S(C)(=O)=O)cc2)n1` [Compound 278], the “COX2 2 minutes pge2/pge2d4 area ratio Avg. LLE” value [1] was 4.524, the “COX2 2 minutes pge2 area” value [3] was 4.672 and the pIC50 [4] was 5.43. The “COX2 10 minutes pge2 area” value [5] was 4.674, the pIC50 [6] was 5.43 and the pIC50 [7] was 5.28.
In the case of `CS(=O)(=O)c1ccc(-c2ccnc(OCc3cccs3)c2)cc1` [Compound 267], the “COX2 2 minutes pge2/pge2d4 area ratio Avg. LLE” value [1] was 1.454, the “COX2 2 minutes pge2 area” value [3] was 1.6998 and the pIC50 [4] was 5.53. For the same molecule, the pIC50 [7] was 5.28.
`CS(=O)(=O)c1ccc(-n2ccc3ccc(/C(=N/O)c4cccs4)nc32)cc1` [Compound 195] was tested, and the pIC50 [2] was 6.05 and the pIC50 [4] was 6.01.
For `CS(=O)(=O)c1ccc(-c2nc(NCc3cccs3)ccc2S(C)(=O)=O)cc1` [Compound 265], the “COX2 2 minutes pge2/pge2d4 area ratio Avg. LLE” value [1] was 2.641, the pIC50 [2] was 5.32 and the “COX2 2 minutes pge2 area” value [3] was 2.624.
For `CS(=O)(=O)c1ccc(-c2cnnc(NCc3cccs3)c2)cc1` [Compound 233], the “COX2 2 minutes pge2/pge2d4 area ratio Avg. LLE” value [1] was 2.958, the pIC50 [2] was 5.61 and the “COX2 2 minutes pge2 area” value [3] was 2.953. The pIC50 [4] was 5.51.
For `CS(=O)(=O)c1ccc(-c2cncc(OCc3ccns3)n2)cc1` [Compound 153], the “COX2 2 minutes pge2/pge2d4 area ratio Avg. LLE” value [1] was 5.153, the pIC50 [2] was 6.52 and the “COX2 2 minutes pge2 area” value [3] was 5.323. The pIC50 [4] was 6.71.
Work on `CO/N=C(/c1ccc2ccn(-c3ccc(S(C)(=O)=O)cc3)c2n1)c1cccs1` [Compound 214] yielded a pIC50 [2] of 5.82 and a pIC50 [4] of 5.92.
For `CS(=O)(=O)c1ccc(-c2cncc(SCc3ccccn3)n2)cc1` [Compound 131], the “COX2 2 minutes pge2/pge2d4 area ratio Avg. LLE” value [1] was 5.065, the pIC50 [2] was 6.80 and the “COX2 2 minutes pge2 area” value [3] was 5.129. For the same molecule, the pIC50 [4] was 6.88.
`CS(=O)(=O)c1ccc(-n2ccc3ccc(NCc4ccco4)nc32)cc1` [Compound 125] was tested, and the “COX2 2 minutes pge2/pge2d4 area ratio Avg. LLE” value [1] was 3.017, the pIC50 [2] was 6.85 and the “COX2 2 minutes pge2 area” value [3] was 2.953. The pIC50 [4] was 6.76.
In the case of `CS(=O)(=O)c1ccc(-c2cccc(C[C@H](O)c3cccs3)n2)cc1` [Compound 300], the pIC50 [7] was 5.28.
For `CS(=O)(=O)c1ccc(-c2cncc(OCc3nccs3)n2)cc1` [Compound 147], the “COX2 2 minutes pge2/pge2d4 area ratio Avg. LLE” value [1] was 4.543, the pIC50 [2] was 6.60 and the “COX2 2 minutes pge2 area” value [3] was 4.9085. For the same molecule, the pIC50 [4] was 6.95.
For `CS(=O)(=O)c1ccc(-c2cccc(C(=O)Nc3cccs3)n2)cc1` [Compound 281], the “COX2 2 minutes pge2/pge2d4 area ratio Avg. LLE” value [1] was 2.264 and the pIC50 [2] was 5.28.
In the case of `CS(=O)(=O)c1ccc(-c2nc3cnn(Cc4cccs4)c3[nH]2)cc1` [Compound 256], the pIC50 [2] was 5.39 and the pIC50 [4] was 5.34.
With `CS(=O)(=O)c1ccc(-c2cccc(NCc3ccn[nH]3)n2)cc1` [Compound 264] the “COX2 2 minutes pge2/pge2d4 area ratio Avg. LLE” value [1] was 2.63, the pIC50 [2] was 5.34 and the “COX2 2 minutes pge2 area” value [3] was 2.705. It also gave a pIC50 [4] of 5.38.
With `CS(=O)(=O)c1ccc(-c2cc(NCc3ccoc3)ncn2)cc1` [Compound 239] the pIC50 [2] was 5.56 and the pIC50 [4] was 5.51.
With `CSc1ccc(-c2cccc(NCc3ccoc3)n2)cc1` [Compound 295] the pIC50 [7] was 5.28.
With `Cn1nccc1CNc1cccc(-c2ccc(S(C)(=O)=O)cc2)n1` [Compound 197] the “COX2 2 minutes pge2/pge2d4 area ratio Avg. LLE” value [1] was 3.969, the pIC50 [2] was 6.02 and the “COX2 2 minutes pge2 area” value [3] was 4.01. The pIC50 [4] was 6.08.
In the case of `COc1cc(S(C)(=O)=O)ccc1-c1cccc(NCc2ccoc2)n1` [Compound 297], the pIC50 [7] was 5.28.
`CS(=O)(=O)c1ccc(-c2cccc([C@H](O)Cc3cccs3)n2)cc1` [Compound 284] was tested, and the “COX2 2 minutes pge2/pge2d4 area ratio Avg. LLE” value [1] was 2.424, the “COX2 2 minutes pge2 area” value [3] was 2.424 and the pIC50 [7] was 5.28.
